Experiment [1] addresses Ribosomal protein S6 kinase alpha-5 (Homo sapiens) (UniProt O75582). The experiment is described as follows: Selectivity interaction (Kinase panel (KiNativ target engagement assay in Jurkat cells)) EUB0001635a RPS6KA5. The class given is cell-based. Conditions: Selectivity number of off-targets 0.0, Selectivity number of targets 233.0, Source Knowledge https://www.sciencedirect.com/science/article/pii/S2451945619300674?via%3Dihub, at 1 µM.

Experiment [2] deals with Mitogen-activated protein kinase kinase kinase 10 (Homo sapiens) (UniProt Q02779). Conditions: at 10 µM.
Mitogen-activated protein kinase kinase kinase 10 (Homo sapiens), sequence (Q02779 whole entry, looked up): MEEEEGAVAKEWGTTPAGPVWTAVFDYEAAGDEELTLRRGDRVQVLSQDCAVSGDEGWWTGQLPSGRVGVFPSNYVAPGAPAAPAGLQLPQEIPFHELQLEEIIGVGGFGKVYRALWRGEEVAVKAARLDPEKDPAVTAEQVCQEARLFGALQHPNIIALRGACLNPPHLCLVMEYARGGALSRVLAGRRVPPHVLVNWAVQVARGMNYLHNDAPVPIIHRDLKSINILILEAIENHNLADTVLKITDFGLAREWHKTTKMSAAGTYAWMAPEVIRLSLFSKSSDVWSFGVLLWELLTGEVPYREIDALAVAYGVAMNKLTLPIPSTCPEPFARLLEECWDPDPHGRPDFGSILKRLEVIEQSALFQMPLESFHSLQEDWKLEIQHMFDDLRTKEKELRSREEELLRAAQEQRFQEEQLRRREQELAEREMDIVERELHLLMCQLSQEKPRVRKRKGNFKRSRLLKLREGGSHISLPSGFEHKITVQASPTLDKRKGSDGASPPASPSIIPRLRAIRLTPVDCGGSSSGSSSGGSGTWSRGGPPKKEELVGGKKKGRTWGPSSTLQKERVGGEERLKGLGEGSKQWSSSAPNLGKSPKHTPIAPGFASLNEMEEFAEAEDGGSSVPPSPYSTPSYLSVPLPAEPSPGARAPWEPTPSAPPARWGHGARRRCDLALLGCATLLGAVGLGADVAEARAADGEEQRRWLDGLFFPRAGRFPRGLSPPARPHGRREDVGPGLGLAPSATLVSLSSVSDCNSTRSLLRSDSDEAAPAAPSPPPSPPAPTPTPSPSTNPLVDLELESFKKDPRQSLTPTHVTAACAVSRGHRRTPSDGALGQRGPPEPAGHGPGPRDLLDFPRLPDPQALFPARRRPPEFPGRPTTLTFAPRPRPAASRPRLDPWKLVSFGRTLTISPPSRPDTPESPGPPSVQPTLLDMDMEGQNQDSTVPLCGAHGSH
Experiment [3] has as its target T1, Interleukin-1 receptor-associated kinase 3 (Homo sapiens) (UniProt Q9Y616).
T1 sequence (whole entry): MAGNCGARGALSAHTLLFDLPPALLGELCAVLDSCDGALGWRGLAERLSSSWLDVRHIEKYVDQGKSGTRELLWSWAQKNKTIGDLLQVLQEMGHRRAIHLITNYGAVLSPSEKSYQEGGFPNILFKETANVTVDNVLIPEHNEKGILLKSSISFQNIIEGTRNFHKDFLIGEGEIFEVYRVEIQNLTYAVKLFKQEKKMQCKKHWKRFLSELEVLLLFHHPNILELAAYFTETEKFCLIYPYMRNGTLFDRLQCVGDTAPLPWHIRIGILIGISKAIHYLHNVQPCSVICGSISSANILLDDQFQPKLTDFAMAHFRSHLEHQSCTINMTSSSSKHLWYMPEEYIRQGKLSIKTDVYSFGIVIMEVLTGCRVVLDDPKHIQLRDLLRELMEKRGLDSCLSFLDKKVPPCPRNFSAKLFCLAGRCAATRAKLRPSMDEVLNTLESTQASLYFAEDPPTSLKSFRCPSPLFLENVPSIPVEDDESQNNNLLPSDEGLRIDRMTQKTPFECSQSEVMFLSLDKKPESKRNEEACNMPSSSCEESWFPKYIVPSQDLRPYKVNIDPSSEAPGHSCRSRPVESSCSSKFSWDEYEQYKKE
As to the kind of experiment: Selectivity interaction (ActivX KiNativ screen (kinase selectivity in THP-1 cell lysates)) EUB0000639a IRAK3. Type of experiment: subcellular. Conditions: lysate, at 1 µM.

The target in experiment [4] is Serine/threonine-protein kinase MARK1 (Homo sapiens) (UniProt Q9P0L2). The experiment is described as follows: Selectivity interaction (ActivX KiNativ screen (kinase selectivity in THP-1 cell lysates)) EUB0000639a MARK1. Type of experiment: subcellular. Conditions: lysate.
Serine/threonine-protein kinase MARK1 (Homo sapiens), sequence (Q9P0L2 whole entry, looked up): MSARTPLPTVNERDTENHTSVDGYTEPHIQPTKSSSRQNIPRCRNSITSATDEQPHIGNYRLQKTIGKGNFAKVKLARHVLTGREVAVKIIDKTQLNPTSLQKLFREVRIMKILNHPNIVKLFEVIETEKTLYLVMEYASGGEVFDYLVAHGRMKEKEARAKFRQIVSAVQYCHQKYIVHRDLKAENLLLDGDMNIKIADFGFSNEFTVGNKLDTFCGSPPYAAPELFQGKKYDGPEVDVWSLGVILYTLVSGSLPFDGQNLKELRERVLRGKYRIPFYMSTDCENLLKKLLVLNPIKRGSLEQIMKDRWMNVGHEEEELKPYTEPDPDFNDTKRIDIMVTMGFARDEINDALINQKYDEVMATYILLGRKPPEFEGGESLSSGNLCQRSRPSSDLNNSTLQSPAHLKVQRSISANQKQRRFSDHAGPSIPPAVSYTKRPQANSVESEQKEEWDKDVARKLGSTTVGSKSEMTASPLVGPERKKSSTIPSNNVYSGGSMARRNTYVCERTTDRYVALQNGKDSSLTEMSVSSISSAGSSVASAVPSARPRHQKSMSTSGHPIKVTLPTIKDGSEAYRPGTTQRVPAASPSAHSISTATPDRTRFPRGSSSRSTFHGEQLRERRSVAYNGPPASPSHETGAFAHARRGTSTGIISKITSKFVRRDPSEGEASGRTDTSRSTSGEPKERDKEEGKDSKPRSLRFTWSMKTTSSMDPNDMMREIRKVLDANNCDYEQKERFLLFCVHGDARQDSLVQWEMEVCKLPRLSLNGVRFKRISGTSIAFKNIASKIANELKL
The target of experiment [5] is T2, Calcium/calmodulin-dependent protein kinase type IV (Homo sapiens) (UniProt Q16566).
T2 sequence (whole entry): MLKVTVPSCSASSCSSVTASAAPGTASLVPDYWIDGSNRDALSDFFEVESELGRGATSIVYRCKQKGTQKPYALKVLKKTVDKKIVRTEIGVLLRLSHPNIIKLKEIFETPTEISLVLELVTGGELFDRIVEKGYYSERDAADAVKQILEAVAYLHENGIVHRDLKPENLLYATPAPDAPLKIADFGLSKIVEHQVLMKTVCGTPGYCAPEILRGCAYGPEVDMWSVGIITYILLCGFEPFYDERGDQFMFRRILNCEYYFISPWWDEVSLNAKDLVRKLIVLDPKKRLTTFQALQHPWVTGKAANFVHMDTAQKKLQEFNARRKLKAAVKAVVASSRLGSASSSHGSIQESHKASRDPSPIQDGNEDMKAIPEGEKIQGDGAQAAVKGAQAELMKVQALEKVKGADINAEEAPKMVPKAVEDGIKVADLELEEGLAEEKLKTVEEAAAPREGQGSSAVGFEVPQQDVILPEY
As to the kind of experiment: Selectivity interaction (ProQinase) EUB0000171b CAMK4.

The target in experiment [6] is Bromodomain-containing protein 9 (Homo sapiens) (UniProt Q9H8M2). The experiment is described as follows: Selectivity interaction (Bromodomain panel (DSF asssay)) EUB0000270b BRD9.
Bromodomain-containing protein 9 (Homo sapiens), sequence (Q9H8M2 whole entry): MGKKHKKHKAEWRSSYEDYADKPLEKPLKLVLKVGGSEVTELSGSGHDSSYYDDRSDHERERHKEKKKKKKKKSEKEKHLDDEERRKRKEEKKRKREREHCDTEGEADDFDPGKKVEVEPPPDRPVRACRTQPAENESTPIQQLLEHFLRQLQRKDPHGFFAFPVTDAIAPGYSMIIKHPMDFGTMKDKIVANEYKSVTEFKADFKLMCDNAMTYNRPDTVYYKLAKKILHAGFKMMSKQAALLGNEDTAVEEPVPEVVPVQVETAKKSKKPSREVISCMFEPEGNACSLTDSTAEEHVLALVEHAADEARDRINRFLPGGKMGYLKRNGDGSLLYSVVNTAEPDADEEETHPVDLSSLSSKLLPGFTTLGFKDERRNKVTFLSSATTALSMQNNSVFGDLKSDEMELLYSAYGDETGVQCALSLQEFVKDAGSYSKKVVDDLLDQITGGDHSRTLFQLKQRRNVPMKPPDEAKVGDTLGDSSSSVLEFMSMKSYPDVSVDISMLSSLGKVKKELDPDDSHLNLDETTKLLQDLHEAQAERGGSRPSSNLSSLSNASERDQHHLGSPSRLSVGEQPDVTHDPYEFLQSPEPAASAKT
In experiment [7] the target is Cyclin-dependent kinase-like 3 (Homo sapiens) (UniProt Q8IVW4). The experiment is described as follows: Selectivity interaction (KinomeScan (DiscoverX)) EUB0000045b CDKL3.
Cyclin-dependent kinase-like 3 (Homo sapiens), sequence (Q8IVW4 whole entry, looked up): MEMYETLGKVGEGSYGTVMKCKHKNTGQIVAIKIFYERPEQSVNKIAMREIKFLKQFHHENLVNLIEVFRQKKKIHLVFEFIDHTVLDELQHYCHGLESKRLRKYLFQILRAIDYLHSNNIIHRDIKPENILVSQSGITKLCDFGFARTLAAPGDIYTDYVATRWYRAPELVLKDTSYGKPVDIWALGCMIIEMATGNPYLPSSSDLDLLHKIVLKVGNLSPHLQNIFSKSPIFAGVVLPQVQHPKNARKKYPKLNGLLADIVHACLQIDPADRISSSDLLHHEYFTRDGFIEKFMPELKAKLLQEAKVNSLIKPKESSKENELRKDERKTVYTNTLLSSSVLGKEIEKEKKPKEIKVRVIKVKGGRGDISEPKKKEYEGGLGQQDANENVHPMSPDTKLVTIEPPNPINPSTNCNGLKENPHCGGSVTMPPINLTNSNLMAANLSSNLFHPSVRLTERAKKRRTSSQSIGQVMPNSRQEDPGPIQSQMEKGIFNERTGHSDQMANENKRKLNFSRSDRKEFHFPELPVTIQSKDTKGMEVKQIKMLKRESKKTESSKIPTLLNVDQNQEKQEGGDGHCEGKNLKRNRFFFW
Experiment [8] concerns the target T3, Mitogen-activated protein kinase kinase kinase kinase 2 (Homo sapiens) (UniProt Q12851).
T3 sequence (whole entry): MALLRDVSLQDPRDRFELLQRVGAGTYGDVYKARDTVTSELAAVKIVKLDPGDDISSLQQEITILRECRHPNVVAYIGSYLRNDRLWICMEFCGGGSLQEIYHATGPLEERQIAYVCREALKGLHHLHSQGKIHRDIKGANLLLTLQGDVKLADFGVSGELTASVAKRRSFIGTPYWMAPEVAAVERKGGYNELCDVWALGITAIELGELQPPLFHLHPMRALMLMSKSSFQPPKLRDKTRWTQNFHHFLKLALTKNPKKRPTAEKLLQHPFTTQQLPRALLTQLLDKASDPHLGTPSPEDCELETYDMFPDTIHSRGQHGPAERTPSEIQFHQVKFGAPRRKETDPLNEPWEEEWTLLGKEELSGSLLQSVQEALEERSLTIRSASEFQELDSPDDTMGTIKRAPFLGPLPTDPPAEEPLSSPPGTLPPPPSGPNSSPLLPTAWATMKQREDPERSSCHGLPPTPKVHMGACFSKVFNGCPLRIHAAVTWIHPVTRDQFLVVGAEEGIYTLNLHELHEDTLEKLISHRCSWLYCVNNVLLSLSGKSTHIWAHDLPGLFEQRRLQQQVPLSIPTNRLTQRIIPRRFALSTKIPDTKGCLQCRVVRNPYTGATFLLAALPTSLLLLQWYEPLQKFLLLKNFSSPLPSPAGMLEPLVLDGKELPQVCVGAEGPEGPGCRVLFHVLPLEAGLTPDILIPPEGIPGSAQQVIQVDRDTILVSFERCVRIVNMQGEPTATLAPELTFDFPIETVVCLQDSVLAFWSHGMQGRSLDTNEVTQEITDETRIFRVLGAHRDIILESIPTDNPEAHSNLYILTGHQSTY
As to the kind of experiment: Selectivity interaction (KinomeScan (DiscoverX)) EUB0000045b MAP4K2.

The target in experiment [9] is Mitogen-activated protein kinase kinase kinase 4 (Homo sapiens) (UniProt Q9Y6R4). The experiment is described as follows: Selectivity interaction (KinomeScan (DiscoverX)) EUB0000618a MAP3K4. The note with it: at 10 µM.
Mitogen-activated protein kinase kinase kinase 4 (Homo sapiens), sequence (Q9Y6R4 whole entry): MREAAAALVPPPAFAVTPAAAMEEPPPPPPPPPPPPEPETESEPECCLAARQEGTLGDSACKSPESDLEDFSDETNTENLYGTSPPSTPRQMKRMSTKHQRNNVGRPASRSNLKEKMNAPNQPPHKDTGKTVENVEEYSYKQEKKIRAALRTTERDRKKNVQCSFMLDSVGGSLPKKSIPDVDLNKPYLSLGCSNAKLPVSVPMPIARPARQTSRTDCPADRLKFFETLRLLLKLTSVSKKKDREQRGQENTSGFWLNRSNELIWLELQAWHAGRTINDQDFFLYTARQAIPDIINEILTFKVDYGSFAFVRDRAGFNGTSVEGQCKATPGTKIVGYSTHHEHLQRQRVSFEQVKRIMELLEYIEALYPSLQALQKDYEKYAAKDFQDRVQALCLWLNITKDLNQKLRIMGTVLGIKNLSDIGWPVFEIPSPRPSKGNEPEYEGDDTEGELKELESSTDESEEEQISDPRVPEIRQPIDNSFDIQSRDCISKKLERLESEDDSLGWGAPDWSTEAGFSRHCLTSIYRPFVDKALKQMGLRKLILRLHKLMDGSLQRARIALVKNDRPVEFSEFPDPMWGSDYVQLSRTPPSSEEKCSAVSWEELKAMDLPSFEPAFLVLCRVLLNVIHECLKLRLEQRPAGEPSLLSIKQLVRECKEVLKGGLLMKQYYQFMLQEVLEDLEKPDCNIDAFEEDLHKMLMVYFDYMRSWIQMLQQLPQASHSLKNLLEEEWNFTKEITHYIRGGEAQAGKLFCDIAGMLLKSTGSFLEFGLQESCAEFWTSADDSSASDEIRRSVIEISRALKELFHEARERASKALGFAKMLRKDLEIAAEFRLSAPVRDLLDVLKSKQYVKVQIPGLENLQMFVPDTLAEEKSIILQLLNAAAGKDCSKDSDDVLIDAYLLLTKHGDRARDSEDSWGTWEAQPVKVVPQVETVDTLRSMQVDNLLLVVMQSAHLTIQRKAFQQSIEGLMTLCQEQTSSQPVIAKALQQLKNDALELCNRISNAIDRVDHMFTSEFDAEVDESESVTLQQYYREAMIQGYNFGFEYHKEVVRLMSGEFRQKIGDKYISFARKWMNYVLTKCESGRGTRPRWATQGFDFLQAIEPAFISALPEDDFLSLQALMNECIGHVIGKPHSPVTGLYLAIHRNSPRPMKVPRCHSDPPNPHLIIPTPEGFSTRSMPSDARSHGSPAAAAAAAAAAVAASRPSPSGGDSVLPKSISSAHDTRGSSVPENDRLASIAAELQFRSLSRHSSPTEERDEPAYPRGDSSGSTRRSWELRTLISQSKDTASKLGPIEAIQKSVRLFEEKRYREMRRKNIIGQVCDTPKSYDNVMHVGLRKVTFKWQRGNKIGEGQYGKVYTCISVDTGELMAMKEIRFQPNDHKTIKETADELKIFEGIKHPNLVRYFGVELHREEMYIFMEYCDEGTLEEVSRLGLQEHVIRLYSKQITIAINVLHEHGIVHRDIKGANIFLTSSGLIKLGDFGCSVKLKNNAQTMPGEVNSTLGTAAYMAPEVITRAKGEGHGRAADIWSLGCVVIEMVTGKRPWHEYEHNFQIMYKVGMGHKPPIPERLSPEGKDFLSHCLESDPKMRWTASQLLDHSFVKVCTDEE

`C=CC(=O)Nc1ccc(C(=O)Nc2[nH]nc3c2CN(C(=O)N[C@H](CN(C)C)c2ccccc2)C3(C)C)cc1`: the % of engagement in experiment [1] came to 5.7%.

Consider `Cc1cc([C@@H](C)Nc2ccccc2C(=O)O)c2nc(N3CCOCC3)cc(=O)n2c1` [AZD-6482], for which, in experiment [2], the % of control was found to be 96%.

Turning to `CC[C@@H]1[C@H](F)C(=O)N[C@@H]1COc1nccc2cc(C(N)=O)c(OC)cc12` [ZIMLOVISERTIB], the % of inhibition in experiment [3] was 73%; in experiment [4] (at 0.01 µM), -5.4%; in experiment [4] (at 0.04 µM) it was 8.3%; in experiment [4] (at 0.2 µM), 8.4%; in experiment [4] (at 1 µM), 26.6%; in [4] (at 5 µM), 51.5%.

`C=CC(=O)Nc1cccc(C(=O)Nc2ccc(Nc3cc(-c4[nH]c(SC)nc4C)ccn3)cc2)c1`: the % of control in experiment [5] (at 1 µM) worked out at 110%; in experiment [5] (at 5 µM) it was 91%.

As to `Cc1cc(CN)cc(C)c1-c1ncn(C)c1-c1cncn1C`, in experiment [6], the dTM was -1.14 K.

Turning to `C=CC(=O)Nc1cc(-n2c(=O)ccc3cnc4ccc(-c5ccc(NS(C)(=O)=O)cc5)cc4c32)ccc1C`, the % of control in experiment [7] (at 1 µM) was determined as 100%; in experiment [7] (at 10 µM), 96%; in [8] (at 1 µM), 100%; in [8] (at 10 µM) it was 89%.

In experiment [9], `O[C@H]1CC[C@H](Nc2ncc3nc(Nc4c(F)cc(F)cc4F)n([C@H]4CCOC4)c3n2)CC1` gave a % of control of 100%.
